Values quoted from earlier work as cited in patent US11439715B2, “Compositions and methods to detect GLUA1 in brain and to identify the presence of GLUA1-mediated post-traumatic stress disorder and other neurological disorders” (Neurovation Labs, Inc., priority 2017, dated 2022).
Entries after “also recorded” stand apart in the source; their conditions may differ. Read-outs that look alike come from different tables or passages of the source.

How the values were obtained:
[1] = test system: Stress-Enhanced Fear Learning (SEFL), a rodent model of PTSD
GluN1 = conditions: stressed and unstressed rats, measured three weeks after the trauma
GluA1 = conditions: stressed rats, metyrapone given before the trauma, measured three weeks after the trauma
GluA2 = conditions: stressed and unstressed rats, measured three weeks after the trauma

Compound	percent freezing in Context B on Day 3 (sensitized fear, SEFL) ([1]; intra-BLA infusion post-trauma, compared with stressed controls (ACSF or MSO), hydrobromide)	GluN1 levels in the BLA (GluN1:GAPDH optical density ratio) (GluN1)	GluA1 protein levels in the BLA (GluA1:GAPDH optical density ratio) (GluA1)	GluA1 protein levels in the BLA (GluA1:GAPDH optical density ratio) (GluA1; listed as metyrapone)	SEFL (stress-enhanced fear learning) ([1]; metyrapone given before the trauma)	GluA2 levels in the BLA (GluA2:GAPDH optical density ratio) (GluA2)
Br.C[N+](C)(C)CCCCCNCC12CC3CC(CC(C3)C1)C2.[Br-] [IEM-1460, N,N,H,-Trimethyl-5-[(tricyclo[3.3.1.13,7]dec-1-ylmethyl)amino]-1-pentanaminiumbromide hydrobromide]	significantly reduces freezing in Context B; also recorded: attenuate SEFL					
CC(C)(C(=O)c1cccnc1)c1cccnc1 [Metyrapone]		Neither stress nor metyrapone had an effect on GluN1 levels	prevented GluA1 increases	significantly higher in stressed rats than in unstressed rats and metyrapone-treated rats	effectively preventing SEFL	Neither stress nor metyrapone had an effect on GluA2 levels
